The test system of one experiment is PD-L1 in U937 cells. In words: PD-L1 levels in U937 cells by western blotting and flow cytometry. The experiment is classed as cell-based, human. As to the method:
(§1) Fig. 1 EGFR inhibitors were screened to reduce membrane PD-L1 levels. a High-throughput screening of 2125 FDA-approved drugs or drug candidates. U937 cells were incubated with IFNγ (100 ng/mL) for 48 h, treated with the drugs at 10 μM for 12 h. Ruxolitinib (Rux) was used as a positive control. The hit compounds that induced the decrease of PD-L1 levels are shown in blue. The depth of blue represents decreased level of PD-L1. The heatmap represents the targeted pathways obtained from the high-throughput screening, based upon decreased membrane PD-L1 level detected by flow cytometry. b Immunoblotting of PD-L1 in U937 cells treated with ES-072 (ES) or AZD9291 (AZD) at indicated concentrations for 12 h. ES and AZD are EGFR inhibitors. c, d Median fluorescence intensity (MFI) (c) and relative quantification (d) of PD-L1 in U937 cells treated with 10 μM ES-072 or 10 μM AZD9291 for 12 h. Data represent means ± SEM, n = 18, 6 independent repeats, ****P < 0.0001. e–g Immunoblotting (e, f) and flow cytometry (g) analysis of PD-L1 levels in U937 cells treated with 10 μM ES-072 or 10 μM AZD9291 for the indicated times. h, i Immunoblottings (h) of PD-L1 and β-TrCP, relative quantification (i) of PD-L1 MFI in H1975 cells transfected with non-targeting siRNA (si-CTRL) or β-TrCP siRNAs (si-β-TrCP) and treated with or without 10 μM ES-072/AZD9291 for 12 h. Data represent means ± SEM, n = 9, 3 independent repeats, NS: no significant; ****P < 0.0001. j–l Immunoblotting (j) and flow cytometry analysis (k) with relative quantification (l) of PD-L1 in H1975 cells treated with 10 μM ES-072 or AZD9291, and/or 5 μM LY2090314 (LY) for 12 h. LY is a GSK3 inhibitor. […]
For western blot analysis, cells were collected and washed with PBS, then lysed in radioimmunoprecipitation assay (RIPA) buffer (1% Triton X-100, 100 mM Tris-HCl pH 8.8, 100 mM NaCl, 0.5 mM EDTA). […] The supernatant was collected and the protein concentration was measured by bicinchoninic acid reaction. […] Signals were detected using chemiluminescence reagents (#4AW001-500, 4A649 Biotech, Co.). […]
Background: A western blot detects proteins with antibodies after separation by electrophoresis.

The subject of a further experiment is PD-L1 in H1975 cells. In words: PD-L1 levels in H1975 cells by immunoblotting and flow cytometry. The experiment is classed as cell-based, human. How it is done:
as §1, with “h.” for “h. LY is a GSK3 inhibitor.”
Fig. 5 GSK3α-mediated phosphorylation of PD-L1 promotes PD-L1-ARIH1 interaction and ARIH1-induced degradation. a Co-IP analysis for the interaction of K48-ubiquitin, ARIH1 (HA), and PD-L1 in HEK293T cells transfected with HA-ARIH1 and Flag-PD-L1 (WT, S279A, S283A, or 2SA), treated with MG132 (10 μM) for 6 h; HA-tagged empty vector (HA-EV) was transfected as a negative control. b Co-IP analysis for the interaction of ARIH1 and PD-L1 in HEK293T cells transfected with HA-ARIH1 and Flag-PD-L1 (WT or 2SA), treated with 10 μM ES-072 for 24 h, Flag-tagged empty vector (Flag-EV) was transfected as a negative control. c HEK293T cells were transfected with Flag-PD-L1. Co-IP analysis for the interaction of ubiquitin and PD-L1 in HEK293T cells transfected with ARIH1-siRNAs or HA-GSK3α and treated with MG132 (10 μM) for 6 h; non-targeting siRNA (si-CTRL) was transfected as a negative control. d Immunoblots of PD-L1 and ARIH1 (HA) in H1975 cells transfected with HA-ARIH1, treated with or without 5 μM LY for 6 h. e, f MFI (e) and relative quantification (f) of PD-L1 in HA-ARIH1-overexpressed H1975 cells, treated with or without 5 μM LY for 6 h. […]

Another experiment has as its target GSK3α (Homo sapiens, UniProt P49840). The experiment can be described thus: In vitro kinase specificity profiling for GSK3α. The experiment is classed as biochemical.

The structures appear in SMILES notation. Where “and” joins values, the source holds several entries; their conditions need not be identical. Equal entries are not always repeated. Residues, ends and D or L forms follow the SMILES beside them. *: point of attachment. Cbz = O=C(OCc1ccccc1)*

GSK3α, sequence (P49840 whole entry): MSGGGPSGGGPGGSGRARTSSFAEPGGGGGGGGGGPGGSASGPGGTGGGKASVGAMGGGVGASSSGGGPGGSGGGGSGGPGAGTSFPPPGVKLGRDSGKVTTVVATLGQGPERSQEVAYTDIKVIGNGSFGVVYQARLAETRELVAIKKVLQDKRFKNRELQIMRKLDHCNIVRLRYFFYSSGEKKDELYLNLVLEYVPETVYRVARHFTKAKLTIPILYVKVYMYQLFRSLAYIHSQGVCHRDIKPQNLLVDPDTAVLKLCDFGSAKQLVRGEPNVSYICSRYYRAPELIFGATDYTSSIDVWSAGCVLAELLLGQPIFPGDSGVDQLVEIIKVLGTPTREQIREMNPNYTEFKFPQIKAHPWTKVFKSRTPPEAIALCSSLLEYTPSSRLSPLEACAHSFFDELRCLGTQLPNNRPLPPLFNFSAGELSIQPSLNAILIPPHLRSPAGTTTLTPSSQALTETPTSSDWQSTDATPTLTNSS

For the compound `N#CC[C@H](C1CCCC1)n1cc(-c2ncnc3[nH]ccc23)cn1` [Ruxolitinib], the “IFNγ-induced PD-L1 levels” value in the experiment with PD-L1 in U937 cells (100 ng/mL IFNγ 48 h, 10 μM Ruxolitinib 12 h) is given as “blocked”.
For `C=CC(=O)Nc1cc(Nc2nccc(-c3cn(C)c4ccccc34)n2)c(OC)cc1N(C)CCN(C)C` [AZD9291, Osimertinib], the “IFNγ-induced membranal PD-L1 levels” value with PD-L1 in U937 cells (western blotting and flow cytometry, 10 μM, 12 h) is reported as “dramatically reduced”.
One may read the IC50 as the point on the concentration scale where inhibition reaches its midpoint. Low values mean greater potency, high ones weaker potency. In the case of `O=C1NC(=O)C(c2cnc3ccccn23)=C1c1cn2c3c(cc(F)cc13)CN(C(=O)N1CCCCC1)CC2` [LY2090314], the “ARIH1-overexpression-induced degradation of PD-L1” value in the experiment with PD-L1 in H1975 cells (H1975 cells transfected with HA-ARIH1, 5 μM LY for 6 h) was “rescued”. Further, the “reduction of PD-L1 levels induced following EGFR inhibition” value in the experiment on PD-L1 in H1975 cells (H1975 cells, 5 μM LY2090314 with 10 μM ES-072 or AZD9291, 12 h) is “did block this reduction”. Moreover, the IC50 was 0.98 nM and 0.81 nM and 0.84 nM at GSK3α (single independent tests); 0.87 ± 0.09 nM against GSK3α (value with spread given in main text).
Regarding `CC(C)C[C@@H](C=O)NC(=O)[C@H](CC(C)C)NC(=O)[C@H](CC(C)C)NC(=O)OCc1ccccc1` [MG132] (Cbz-Leu-Leu-Leu-aldehyde), in the experiment on PD-L1 in H1975 cells (H1975 cells, 10 μM ES-072 and 10 μM MG132 for 6 h), the “decrease in the PD-L1 levels induced by ES-072” value is on record as “rescued”.

The record behind these values is PMC8058344, “ARIH1 signaling promotes anti-tumor immunity by targeting PD-L1 for proteasomal degradation” (Nature Communications, 2021).
